Assay results from article PMC8956739, “A synthetic lipopeptide targeting top-priority multidrug-resistant Gram-negative pathogens” (Nature Communications, 2022).
In brackets after ≈: the same amount, converted by molar mass. Several values for one entry are separate records, joined by “and”; a condition that tells them apart may be missing. Equal entries are not always repeated. Where two headings read alike, the source gives them in different places. Residues, ends and D or L forms follow the SMILES beside them.

Legend:
P. aeruginosa ATCC 27853 [1] = assay: Neutropenic mouse bloodstream infection model; format: in vivo; conditions: single IV dose 4 mg/kg; for Log10 CFU/mL blood at 4 h, Mean / Δlog10 CFU/mL blood (mean) / Log10 CFU/mL blood at 4 h, single mouse: 4 h; for Δlog10 CFU/mL blood (mean): treated minus control, mean of replicates; for Δlog10 CFU/mL blood (mean) / Log10 CFU/mL blood at 4 h, single mouse / Delta Log10 CFU/mL blood at 4 h, single mouse: 4 mg/kg; for Delta Log10 CFU/mL blood at 4 h, single mouse: treated mouse minus mean of vehicle mice
In short: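 Female Swiss mice made neutropenic with cyclophosphamide (150 mg/kg day −4, 100 mg/kg day −1), infected IV with 50 µL of 4 × 10^8 CFU/mL. Lipopeptide 4 mg/kg (free base) IV at 2 h post-inoculation, n = 3. Efficacy = Δlog10 CFU/mL blood versus saline at 4 h post-dose.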

A. baumannii FADDI-AB030 = format: cell-based, Acinetobacter baumannii
In short: (§1)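 Cation-adjusted Mueller–Hinton broth was used with the broth microdilution method to set MICs against clinical isolates. A separate run on P. aeruginosa ATCC 27853 added 10% Survanta® (v/v, 2.5 mg/mL phospholipids) to gauge lung-surfactant binding of polymyxins.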

A. baumannii FADDI-AB034 = format: cell-based, Acinetobacter baumannii
In short: as §1

A. baumannii ATCC 19606 = format: cell-based, Acinetobacter baumannii
In short: (§2)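 Susceptibility: microdilution MIC in CaMHB.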

Swiss mice, kidney = assay: Nephrotoxicity in mice (kidney histopathology); format: in vivo, mouse; conditions: for Kidney histopathology (SQS Score): n = 3
In short: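 Female Swiss mice (7-week-old, 22–28 g) received lipopeptides in saline either s.c. at 12 mg/kg ×6 every 2 h (total 72 mg/kg, n = 3) or i.p. at 20 or 25 mg/kg ×6 every 2 h (total 120 mg/kg, n = 6; 150 mg/kg, n = 3). Right kidney collected 20 h after last dose, fixed in 10% buffered formalin (pH 7.4), histology scored blinded.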

P. aeruginosa ATCC 27853 [2] = format: cell-based, Pseudomonas aeruginosa
In short: as §2

[3] = tested on: P. aeruginosa FADDI-PA038; format: cell-based, Pseudomonas aeruginosa
In short: as §1

[4] = tested on: P. aeruginosa FADDI-PA025; format: cell-based, Pseudomonas aeruginosa
In short: as §1

[5] = tested on: K. pneumoniae FADDI-KP032; format: cell-based, Klebsiella pneumoniae
In short: as §1

[6] = tested on: K. pneumoniae FADDI-KP065; format: cell-based, Klebsiella pneumoniae
In short: as §1

[7] = 72 mg/kg/d subcutaneously in six divided doses every 2 h

SMILES	Log10 CFU/mL blood at 4 h, Mean (P. aeruginosa ATCC 27853 [1])	Δlog10 CFU/mL blood (mean) (P. aeruginosa ATCC 27853 [1])	Log10 CFU/mL blood at 4 h, single mouse (P. aeruginosa ATCC 27853 [1])	Delta Log10 CFU/mL blood at 4 h, single mouse (P. aeruginosa ATCC 27853 [1])	MIC A. baumannii FADDI-AB030 (A. baumannii FADDI-AB030; FADDI-AB030)	MIC A. baumannii FADDI-AB034 (A. baumannii FADDI-AB034; FADDI-AB034)	MIC A. baumannii ATCC 19606 (A. baumannii ATCC 19606; ATCC 19606)	Kidney histopathology (SQS Score) (Swiss mice, kidney; [7])	Kidney histopathology, mice with the SQS score (Swiss mice, kidney; mouse, in vivo)	MIC P. aeruginosa ATCC 27853 (P. aeruginosa ATCC 27853 [2]; ATCC 27853)	MIC P. aeruginosa FADDI-PA038 ([3]; FADDI-PA038)	MIC P. aeruginosa FADDI-PA025 ([4]; FADDI-PA025)	MIC K. pneumoniae FADDI-KP032 ([5]; FADDI-KP032)	MIC K. pneumoniae FADDI-KP065 ([6]; FADDI-KP065)	also measured
CCCCCCCCC(=O)N[C@@H](CCN)C(=O)N[C@H](C(=O)N[C@@H](CN)C(=O)N[C@H]1CCNC(=O)[C@H]([C@@H](C)O)NC(=O)[C@H](CCN)NC(=O)[C@H](CCN)NC(=O)[C@H](CC)NC(=O)[C@@H](CC(C)C)NC(=O)[C@H](CCN)NC1=O)[C@@H](C)O [Lipopeptide F314] (HELM PEPTIDE1{[CCCCCCCCC(=O)[*:2]].[Dab].T.[NC[C@H](N[*:1])C(=O)[*:2]].[Dab].[Dab].[dL].[Abu].[Dab].[Dab].T}$PEPTIDE1,PEPTIDE1,5:R3-11:R2$$$V2.0)	4.33 Log10 CFU/mL blood	−2.82 log10 CFU/mL blood	4.52 Log10 CFU/mL blood and 4.04 Log10 CFU/mL blood and 4.42 Log10 CFU/mL blood	-2.63 Log10 CFU/mL blood and -3.10 Log10 CFU/mL blood and -2.72 Log10 CFU/mL blood	0.5 µg/mL (≈ 0.443 µM)	2 µg/mL (≈ 1.77 µM)	0.5 µg/mL (≈ 0.443 µM)	+1 (SQS + 1 = mild damage (overall score, 1 to <15))	3/3	1 µg/mL (≈ 0.887 µM)	2 µg/mL (≈ 1.77 µM)	>32 µg/mL	<0.125 µg/mL	0.25 µg/mL (≈ 0.222 µM)	
CC[C@@H]1NC(=O)[C@@H](CC(C)C)NC(=O)[C@H](CCN)NC(=O)[C@@H](NC(=O)[C@H](CN)NC(=O)[C@@H](NC(=O)[C@H](CCN)NC(=O)c2c(Cl)cccc2Cl)[C@@H](C)O)CCNC(=O)[C@H]([C@@H](C)O)NC(=O)[C@H](CCN)NC(=O)[C@H](CCN)NC1=O [Lipopeptide F360] (HELM PEPTIDE1{[O=C(c1c(Cl)cccc1Cl)[*:2]].[Dab].T.[NC[C@H](N[*:1])C(=O)[*:2]].[Dab].[Dab].[dL].[Abu].[Dab].[Dab].T}$PEPTIDE1,PEPTIDE1,5:R3-11:R2$$$V2.0)	7.04 Log10 CFU/mL blood	−0.07 log10 CFU/mL blood	7.26 Log10 CFU/mL blood and 6.45 Log10 CFU/mL blood and 7.41 Log10 CFU/mL blood	0.15 Log10 CFU/mL blood and -0.66 Log10 CFU/mL blood and 0.30 Log10 CFU/mL blood	4 µg/mL (≈ 3.45 µM)	8 µg/mL (≈ 6.9 µM)	16 µg/mL (≈ 13.8 µM)	0 (SQS 0 = no significant change (overall score, <1))	3/3	0.5 µg/mL (≈ 0.431 µM)	4 µg/mL (≈ 3.45 µM)	4 µg/mL (≈ 3.45 µM)	1 µg/mL (≈ 0.862 µM)	0.5 µg/mL (≈ 0.431 µM)	
CC[C@@H]1NC(=O)[C@@H](CC(C)C)NC(=O)[C@H](CCN)NC(=O)[C@@H](NC(=O)[C@H](CN)NC(=O)[C@@H](NC(=O)[C@H](CCN)NC(=O)c2cccc(Cl)c2)[C@@H](C)O)CCNC(=O)[C@H]([C@@H](C)O)NC(=O)[C@H](CCN)NC(=O)[C@H](CCN)NC1=O [Lipopeptide F371] (HELM PEPTIDE1{[O=C(c1cccc(Cl)c1)[*:2]].[Dab].T.[NC[C@H](N[*:1])C(=O)[*:2]].[Dab].[Dab].[dL].[Abu].[Dab].[Dab].T}$PEPTIDE1,PEPTIDE1,5:R3-11:R2$$$V2.0)	4.61 Log10 CFU/mL blood	−3.33 log10 CFU/mL blood	4.74 Log10 CFU/mL blood and 4.86 Log10 CFU/mL blood and 4.22 Log10 CFU/mL blood	-3.20 Log10 CFU/mL blood and -3.08 Log10 CFU/mL blood and -3.71 Log10 CFU/mL blood				0 (SQS 0 = no significant change (overall score, <1))							MIC A. baumannii FADDI-AB030 (A. baumannii FADDI-AB030; carbapenem-resistant isolate): 1 µg/mL (≈ 0.888 µM); MIC A. baumannii FADDI-AB034 (A. baumannii FADDI-AB034; carbapenem-resistant isolate): 1 µg/mL (≈ 0.888 µM); MIC A. baumannii ATCC 19606 (A. baumannii ATCC 19606): 4 µg/mL (≈ 3.55 µM); Kidney histopathology, mice with the SQS score (Swiss mice, kidney; [7]): 3/3; MIC P. aeruginosa ATCC 27853 (P. aeruginosa ATCC 27853 [2]): 0.5 µg/mL (≈ 0.444 µM); MIC P. aeruginosa FADDI-PA038 ([3]; carbapenem-resistant isolate): 2 µg/mL (≈ 1.78 µM); MIC P. aeruginosa FADDI-PA025 ([4]; MDR clinical isolate): 1 µg/mL (≈ 0.888 µM); MIC K. pneumoniae FADDI-KP032 ([5]; carbapenem-resistant isolate): 0.5 µg/mL (≈ 0.444 µM); MIC K. pneumoniae FADDI-KP065 ([6]; carbapenem-resistant isolate): 1 µg/mL (≈ 0.888 µM)
CC[C@@H]1NC(=O)[C@@H](CC(C)C)NC(=O)[C@H](CCN)NC(=O)[C@@H](NC(=O)[C@H](CN)NC(=O)[C@@H](NC(=O)[C@H](CCN)NC(=O)c2ccc(Cl)cc2)[C@@H](C)O)CCNC(=O)[C@H]([C@@H](C)O)NC(=O)[C@H](CCN)NC(=O)[C@H](CCN)NC1=O [Lipopeptide F378] (HELM PEPTIDE1{[O=C(c1ccc(Cl)cc1)[*:2]].[Dab].T.[NC[C@H](N[*:1])C(=O)[*:2]].[Dab].[Dab].[dL].[Abu].[Dab].[Dab].T}$PEPTIDE1,PEPTIDE1,5:R3-11:R2$$$V2.0)	4.71 Log10 CFU/mL blood	−3.23 log10 CFU/mL blood	4.78 Log10 CFU/mL blood and 4.64 Log10 CFU/mL blood	-3.16 Log10 CFU/mL blood and -3.30 Log10 CFU/mL blood	1 µg/mL (≈ 0.888 µM)	0.25 µg/mL (≈ 0.222 µM)	1 µg/mL (≈ 0.888 µM)	0 (SQS 0 = no significant change (overall score, <1))	3/3	0.5 µg/mL (≈ 0.444 µM)	1 µg/mL (≈ 0.888 µM)	2 µg/mL (≈ 1.78 µM)	0.25 µg/mL (≈ 0.222 µM)	1 µg/mL (≈ 0.888 µM)	
CC[C@@H]1NC(=O)[C@@H](CC(C)C)NC(=O)[C@H](CCN)NC(=O)[C@@H](NC(=O)[C@H](CN)NC(=O)[C@@H](NC(=O)[C@H](CCN)NC(=O)c2ccc(C)cc2)[C@@H](C)O)CCNC(=O)[C@H]([C@@H](C)O)NC(=O)[C@H](CCN)NC(=O)[C@H](CCN)NC1=O [Lipopeptide F383] (HELM PEPTIDE1{[Cc1ccc(C(=O)[*:2])cc1].[Dab].T.[NC[C@H](N[*:1])C(=O)[*:2]].[Dab].[Dab].[dL].[Abu].[Dab].[Dab].T}$PEPTIDE1,PEPTIDE1,5:R3-11:R2$$$V2.0)	4.91 Log10 CFU/mL blood	−3.02 log10 CFU/mL blood	5.76 Log10 CFU/mL blood and 4.40 Log10 CFU/mL blood and 4.59 Log10 CFU/mL blood	-2.18 Log10 CFU/mL blood and -3.54 Log10 CFU/mL blood and -3.35 Log10 CFU/mL blood	2 µg/mL (≈ 1.81 µM)	2 µg/mL (≈ 1.81 µM)	2 µg/mL (≈ 1.81 µM)	0 (SQS 0 = no significant change (overall score, <1))	3/3	0.5 µg/mL (≈ 0.452 µM)	1 µg/mL (≈ 0.905 µM)	2 µg/mL (≈ 1.81 µM)	1 µg/mL (≈ 0.905 µM)	1 µg/mL (≈ 0.905 µM)	
CC[C@@H]1NC(=O)[C@@H](CC(C)C)NC(=O)[C@H](CCN)NC(=O)[C@@H](NC(=O)[C@H](CN)NC(=O)[C@@H](NC(=O)[C@H](CCN)NC(=O)c2ccc(Cl)cc2F)[C@@H](C)O)CCNC(=O)[C@H]([C@@H](C)O)NC(=O)[C@H](CCN)NC(=O)[C@H](CCN)NC1=O [Lipopeptide F448] (HELM PEPTIDE1{[O=C(c1ccc(Cl)cc1F)[*:2]].[Dab].T.[NC[C@H](N[*:1])C(=O)[*:2]].[Dab].[Dab].[dL].[Abu].[Dab].[Dab].T}$PEPTIDE1,PEPTIDE1,5:R3-11:R2$$$V2.0)	4.51 Log10 CFU/mL blood	−3.06 log10 CFU/mL blood	4.51 Log10 CFU/mL blood and 4.31 Log10 CFU/mL blood and 4.72 Log10 CFU/mL blood	-3.07 Log10 CFU/mL blood and -3.27 Log10 CFU/mL blood and -2.85 Log10 CFU/mL blood	1 µg/mL (≈ 0.874 µM)	0.5 µg/mL (≈ 0.437 µM)	2 µg/mL (≈ 1.75 µM)	0 (SQS 0 = no significant change (overall score, <1))	3/3	0.5 µg/mL (≈ 0.437 µM)	0.5 µg/mL (≈ 0.437 µM)	1 µg/mL (≈ 0.874 µM)	<0.125 µg/mL	0.25 µg/mL (≈ 0.219 µM)	
